Where two headings read alike, the source gives them in different places.
Columns and labels:
[1] = system: HCV genotype 1b (Con 1 isolate) subgenomic replicon; assay: microbe, parasite or virus in culture; assay type: cell-based, Hepatitis C virus
Protocol: (§1) Cells. HCV genotype 1b (Con 1 isolate) subgenomic replicon cell line with luciferase reporter (Huh-luc/neo-ET) was kindly provided by Ralf Bartenschlager from the University of Heidelberg (37). Huh-luc/neo-ET cells were cultured in Dulbecco's modified Eagle medium (DMEM , supplemented with 10% fetal bovine serum (FBS), 1 mM nonessential amino acids, and 250 μg/ml of G418 (Invitrogen). Genotype 2a (JFH-I isolate) subgenomic replicon cells YSGR-JFH were cultured in DMEM containing 10 To fetal calf serum, 1 mM nonessential amino acids and 400 μg/ml G418 (31). An additional genotype 1b (Conl) replicon cell line (4291BBix) was cultured in similar media but with 3 μg/ml blasticidin (22).
(§2) Determination of antiviral activities. Ff-luciferase reporter activity was used to monitor the replication of HCV replicons in Huhluc/neo-ET cells free from G418. Replicon cells were seeded at the density of 5×10^3 cells per well in 96-well plates. The following day, replicon cells were incubated in duplicates with DMSO or serially diluted tetraphenylporphyrin (TPP) analogues at 37″C. 72 hrs after co-incubation, cells were lysed with ice-cold passive lysis reagent after PBS wash, and the luciferase activity was measured with the luciferase assay kit (Promega) and Tecan FARCyte luminometer (GE Healthcare) following the manufacturers' descriptions. The relative light units (RLU) were adjusted as percentage readings of the compound-free controls and the 50% effective concentration (EC50) was determined from dose-effect curve by nonlinear regression analysis using Origin 6.1 (OriginLab Software). TPP analogues were also screened in vitro against HIV-I IIIB and HBV as previously described (26,41). Briefly 1×10^3 MT-2 cells per well were exposed in triplets to 0.1TC1D50/cell (50% of the tissue culture infectious dose) of HIV-1 IIIB and cultured in the presence of compounds. The EC50 values were estimated by MTT-based colorimetric quantitation of viral CPE after 5 days. Anti-HBV activities were evaluated in 2.2.15 cells by means of Southern DNA hybridization.

HBV = assay: Anti-HBV activity in 2.2.15 cells by Southern DNA hybridization; assay type: cell-based; details: read-out: Antiviral Activity EC50 HBV
Protocol: as §2

MT-2 cells = assay: Cytotoxicity in uninfected MT-2 cells; assay type: cell-based; details: uninfected MT-2 cells, 5 days; read-out: Cytotoxicity CC50 MT-2
Protocol: (§3) Determination of cytotoxicity and mitochondrial DNA toxicity. Exponentially growing Huh-7 cells were seeded at a density of 1×10^4 cells per well in a 24-well plate and incubated with TPP analogues for 3 days. Cells were fixed and stained with 0.5% methylene blue in 50% ethanol followed by extensive washing. After the plates were air dried, cells were solubilized in 1% sarkosyl and cell growth was determined from the extent of absorption by spectrophotometric measurements at 595 nm (Biotek Instruments). For compounds whose dark color interfered with 595-nm reading, cytotoxicity was measured by the CellTiter-Glo luminesecent cell viability assay following manufacturer's description (Promega). Cytotoxicity in MT-2 cells was determined from colorimetric quantitation of uninfected MT-2 cells after 5 days of coincubation.

Huh-7 cells = assay: Cytotoxicity in Huh-7 cells (methylene blue or CellTiter-Glo); assay type: cell-based; details: Huh-7 cells, 3 days; read-out: Cytotoxicity CC50 Huh-7
Protocol: as §3

[2] = system: HCV genotype 1b (Con1) replicon; assay: Effect of serum concentration on anti-HCV activity, luciferase assay in Huh-luc/neo-ET cells; assay type: cell-based, Hepatitis C virus; details: for EC50: 72 hrs
Protocol: Cells were harvested after 72 hrs for luciferase activity assays.
Huh-luc/neo-ET cells were incubated with compound 1, 4 or 6 for 72 hrs and the anti-HCV activity was evaluated by measuring the reduction of reporter luciferase activities.

[3] = system: HCV genotype 1b (Con1) replicon
Protocol: (§4) Quantification of HCV RNA and NS5A protein. Huhluc/neo-ET cells were seeded at the density of 1×10^5 cells per well in 6-well plate and treated with either DMSO control or up to 250 nM of compound 6. Cells were harvested after 24, 48, or 72 hrs of incubation and subjected to luciferase activity assay, RNA quantification and immunoblotting. Results were averaged from three independent repeats. Luciferase activity assay was done in triplets per experiment as aforementioned and RLU reading was normalized against the total protein level per sample determined from Bradford assay. Total RNA was isolated using RNeasy Mini Kit (QIAGEN) and the RNA concentrations were measured by spectrophotometry (GE Healthcare) followed by dilution into 50 ng/μL. Replicon RNA was quantitated in triplicates by amplifying the HCV 5′UTR using one-step real-time reverse transcriptase polymerase chain reactions (qRT-PCR). Each 20 μL replicate contained 100 ng of total RNA, 100 nM probe (6FAM-5′-[…]-3′-MGBNFQ, Applied Biosystems) and 200 nM forward and reverse primers (5′-[…]-3′, and 5′-[…]-3′ respectively, Yale University W.M. Keck Facility) (21), together with iScript reverse transcriptase and reaction mix for one-step RT-PCR (Bio-Rad Laboratories). Reactions were run in the iCycler iQ RealTime thermocycler detection system (Bio-Rad Laboratories) as follows: 10 min at 50° C., 5 min at 95° C., followed by 42 cycles at 95° C. for 15 sec and 60° C. for […]. Results were normalized against the β-actin mRNA levels in each sample (20).

[4] = system: HCV genotype 1b (Con1) replicon RNA; assay: HCV RNA quantification by qRT-PCR in Huh-luc/neo-ET cells; assay type: cell-based, Hepatitis C virus; details: for EC50: qRT-PCR, estimated
Protocol: as §4
(§5) Activity of compound 6 against genotype 2a (JFH-I) replicons. In parallel to Huh-luc/neo-ET cells, 1×10^5 YSGR-JFH cells per well were incubated with DMSO control, compound 6, or recombinant human IFNα-2a (Pestka Biomedical Laboratories) in 6-well plates. Cells were harvested after 72 hrs of co-incubation and HCV RNAs were quantitated by qRT-PCR and normalized as described above.

[5] = system: HCV genotype 2a (JFH-1) replicon; assay: HCV RNA quantification by qRT-PCR in YSGR-JFH cells; assay type: cell-based, Hepatitis C virus
Protocol: as §1, §5

O=C(O)c1cc(C(=O)O)cc(-c2ccc(-c3c4nc(c(-c5ccc(-c6cc(C(=O)O)cc(C(=O)O)c6)cc5)c5ccc([nH]5)c(-c5ccc(-c6cc(C(=O)O)cc(C(=O)O)c6)cc5)c5nc(c(-c6ccc(-c7cc(C(=O)O)cc(C(=O)O)c7)cc6)c6ccc3[nH]6)C=C5)C=C4)cc2)c1 [Compound 6, Meso-teftakis-(3,5-dicarboxy-4,4′-biphenyl)porphyrin]
selective index in culture (CC50/EC50) ([1]; CC50 in naïve Huh-7 cells / EC50): over 2000
EC50 ([1]; HCV replicons in vitro, read-out: anti-HCV EC50): 24 nM
EC50 ([1]; Huh-luc/neo-ET, 72 hrs, luciferase, read-out: Antiviral Activity EC50 HCV): 24 ± 5.1 nM
EC50 ([1]; Table 3, metal M in porphyrin core, read-out: EC50 anti-HCV activity, metallation of porphyrin core of compound 6): 19 ± 5.2 nM
improvement in anti-HCV EC50 over compound 2 ([1]; relative to lead compound 2): 75 fold
EC50 ([1]; unit inferred, read-out: EC50 against HCV genotype 1b Conl replicons): 24 ± 5 nM
EC50 (HBV): > 20000 nM
CC50 (MT-2 cells): 18000 ± 4240 nM
CC50 (Huh-7 cells): > 50000 nM
EC50 ([2]; 5% FBS, read-out: EC50 5% FBS): 13 ± 3 nM
EC50 ([2]; 40% FBS, read-out: EC50 40% FBS): 69 ± 11 nM
Fold Change in EC50 5% FBS ([2]; EC50 at 5% FBS as one fold): 1.00
EC50 ([2]; extrapolation of the plot of EC50 vs serum amount, read-out: EC50 0% FBS (Theoretical)): 6.5 nM
EC50 ([2]; read-out: EC50 10% FBS, 10% FBS): 24 ± 5 nM
EC50 ([2]; read-out: EC50 20% FBS, 20% FBS): 39 ± 5 nM
Fold Change in EC50 10% FBS ([2]; relative to EC50 at 5% FBS): 1.92 ± 0.22
Fold Change in EC50 20% FBS ([2]; relative to EC50 at 5% FBS): 3.20 ± 0.96
Fold Change in EC50 40% FBS ([2]; relative to EC50 at 5% FBS): 5.56 ± 0.85
improvement of 72-hr EC50 compared with 24-hrs incubation, luciferase ([3]; 72 hr vs 24 hr): over 3 fold
EC50 ([3]; read-out: 24-hr EC50, replicon luciferase activity, 24 hrs incubation): 57.8 nM
EC50 ([3]; read-out: 48-hr EC50, replicon luciferase activity, 48 hrs incubation): 19.2 nM
EC50 ([3]; read-out: 72-hr EC50, replicon luciferase activity, 72 hrs incubation): 17.6 nM
EC50 ([4]; 24 hrs, read-out: 24-hr EC50, HCV RNA level): 67.8 nM
EC50 ([4]; 48 hrs, read-out: 48-hr EC50, HCV RNA level): 36.2 nM
improvement of 72-hr EC50 compared with 24-hr incubation, HCV RNA ([4]; 72 hr vs 24 hr): over 2 fold
EC50 in YSGR-JFH (genotype 2a) relative to EC50 in Huh-luc/neo-ET (genotype 1b) ([5]; 72 hrs): over 57 fold
less effective against genotype 2a (JFH-1) than against genotype 1b (Conl) replicons ([5]; anti-HCV EC50): 57 times
EC50 ([5]; genotype 2a, 72 hrs, HCV RNA by qRT-PCR, read-out: antiviral EC50 against YSGR-JFH replicon cells): 1380 ± 148 nM

From patent US20110064694A1, “ANTI-HEPATITIS C ACTIVITY OF MESO-TETRAKIS-PORPHYRIN ANALOGUES” (YALE UNIVERSITY, priority 2009, published 2011)
